{
  "source": "patent US7229999B2",
  "about": "“Pyridine-3-carboxamide derivatives as CB1 inverse agonists” (Hoffmann-La Roche Inc., priority 2005, dated 2007)",
  "key": {"[1]": {"biological_target": "T1, human cannabis CB1 receptor (Homo sapiens, UniProt P21554)", "T1 construct": "expressed in transfected cells; host or cells: human embryonic kidney (HEK) cells, transient, Semliki Forest Virus system", "T1 sequence (P21554 whole entry)": "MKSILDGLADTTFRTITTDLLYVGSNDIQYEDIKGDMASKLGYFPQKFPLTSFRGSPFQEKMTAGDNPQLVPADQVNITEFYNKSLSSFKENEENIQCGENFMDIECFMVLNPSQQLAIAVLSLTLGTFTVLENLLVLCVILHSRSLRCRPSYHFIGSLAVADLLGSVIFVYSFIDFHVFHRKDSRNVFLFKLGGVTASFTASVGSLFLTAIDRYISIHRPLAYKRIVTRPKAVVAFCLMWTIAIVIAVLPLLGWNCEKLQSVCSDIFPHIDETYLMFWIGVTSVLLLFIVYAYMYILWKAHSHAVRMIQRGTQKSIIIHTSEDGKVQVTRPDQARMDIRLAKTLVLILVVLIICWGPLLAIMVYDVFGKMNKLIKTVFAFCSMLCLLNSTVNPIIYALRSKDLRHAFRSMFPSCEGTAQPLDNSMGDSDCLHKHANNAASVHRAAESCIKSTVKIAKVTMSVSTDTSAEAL", "test": "Affinity for cannabinoid CB1 receptors, [3H]-CP-55,940 radioligand binding on HEK cell membranes", "method": "The affinity of the compounds of the invention for cannabinoid CB1 receptors was determined using membrane preparations of human embryonic kidney (HEK) cells in which the human cannabis CB1 receptor is transiently transfected using the Semliki Forest Virus system in conjunction with [3H]-CP-55,940 as radioligand. After incubation of a freshly prepared cell membrane preparation with the [3H]-ligand, with or without addition of compounds of the invention, separation of bound and free ligand was performed by filtration over glassfiber filters. Radioactivity on the filter was measured by liquid scintillation counting."}, "[2]": {"conditions": "doses of 10 and 20 mg daily; cited from earlier work"}},
  "note": "Read-outs that look alike come from different tables or passages of the source.",
  "data": [
    {"smiles": "CCCCOc1ncc(C(=O)N[C@@H]2CCCC[C@H]2O)cc1-c1cc(C(F)(F)F)ccc1F", "note": "[Example 2, 6-Butoxy-5-(2-fluoro-5-trifluoromethyl-phenyl)-N-((1R,2R)-2-hydroxy-cyclohexyl)-nicotinamide]", "values": [
      {"measurement": "IC50", "setting": "[1]; affinity for the CB1 receptor, read-out: IC50", "value": 0.186, "unit": "µM"},
      {"measurement": "melting point", "value": "172 to 178", "unit": "°C"}
    ]},
    {"smiles": "CCCCOc1ncc(C(=O)N[C@@H]2CCCC[C@H]2O)cc1-c1ccc(Cl)cc1", "note": "[Example 3, 6-Butoxy-5-(4-chloro-phenyl)-N-((1R,2R)-2-hydroxy-cyclohexyl)-nicotinamide]", "values": [
      {"measurement": "IC50", "setting": "[1]", "value": 0.039, "unit": "µM"}
    ]},
    {"smiles": "O=C(N[C@@H]1CCCC[C@H]1O)c1cnc(OCC2CC2)c(-c2cc(C(F)(F)F)ccc2F)c1", "note": "[Example 7, 6-Cyclopropylmethoxy-5-(2-fluoro-5-trifluoromethyl-phenyl)-N-((1R,2R)-2-hydroxy-cyclohexyl)-nicotinamide]", "values": [
      {"measurement": "IC50", "setting": "[1]", "value": 0.102, "unit": "µM"}
    ]},
    {"smiles": "Cc1c(C(=O)NN2CCCCC2)nn(-c2ccc(Cl)cc2Cl)c1-c1ccc(Cl)cc1", "note": "[SR 141716]", "values": [
      {"measurement": "body weight compared to placebo", "setting": "[2]", "value": "significantly reduced body weight"}
    ]}
  ]
}
